Assay type: physicochemical
From the text: The “solubility” in this description means the limit of dissolving of a solute in a solvent; it can be expressed as the concentration of a solute in a saturated solution. The solubility of the oxidized pyrroloquinoline quinone derivative or a salt thereof can be appropriately decided depending on the temperature of the mixture.

## O=C([O-])c1cc(C(=O)[O-])c2c(n1)C(=O)C(=O)c1cc(C(=O)O)[nH]c1-2.[Na+].[Na+] [oxidized pyrroloquinoline quinone disodium]
  solubility: 0.299 g with respect to 100 g of water

— patent US20150272881A1, “REDUCED PYRROLOQUINOLINE QUINONE GEL” (MITSUBISHI GAS CHEMICAL COMPANY, INC., priority 2011, published 2015)
